Non-standard residues stand in square brackets, D forms with d. Residues, ends and D or L forms follow the SMILES beside them. *: point of attachment. Hexenoyl(2E,4S-Me) = CC[C@H](C)/C=C/C(=O)*; NH((S)CH(Me)CH2NMe2) = C[C@@H](CN(C)C)N*; Gly(octyl) = CCCCCCCC[C@H](N)C(=O)O; Hexanoyl = CCCCCC(=O)*; Aib = CC(C)(N)C(=O)O; X9 = c1ccn(CCN*)c1; βAla = NCCC(=O)O
Key:
[1] = Cytotoxicity assay on L6-cells (Alamar Blue); settings: rat, Cytotox L6, Cytotoxicity against rat myoblast cells (L6)
[2] = test system: intracellular Leishmania donovani (L.don. InMac); assay: Intracellular Leishmania donovani assay (L.don. InMac); format: cell-based; settings: In vitro inhibition
From the text: (§1) Tests were done in triplicate.

[3] = test system: Trypanosoma cruzi trypomastigote forms (Tulahuen strain); assay: Intracellular Trypanosoma cruzi assay in L6-cells, beta-galactosidase/CPRG readout; format: cell-based; settings: In vitro inhibition, read-out: T.cruzi.
How it was run: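 Readout was β-galactosidase cleavage of CPRG, read photometrically at 540 nm after 2–6 h colour development, giving IC50 values. Parasites: LacZ-expressing Tulahuen C2C4 strain grown in rat L6 myoblasts; run in triplicate.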

Plasmodium falciparum = assay: 3H-hypoxanthine incorporation assay against Plasmodium falciparum; format: cell-based; settings: In vitro inhibition, read-out: P.falc NF5
Method: as §1
IC50 values were calculated by linear interpolation.

[4] = test system: Trypanosoma brucei rhodesiense (STIB 900 strain); assay: Alamar Blue assay against Trypanosoma brucei rhodesiense grown in axenic medium; format: cell-based; settings: In vitro inhibition, read-out: T.b.rhod.
How it was run: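 Alamar Blue-based IC50 determination, in triplicate, on axenically grown STIB 900 trypanosomes. Melarsoprol included as reference.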

[5] = test system: Axenically grown Leishmania donovani amastigotes (strain MHOM/ET/67/L82); assay: Axenic Leishmania donovani amastigote resazurin assay; format: cell-based; settings: In vitro inhibition, read-out: L.don. ax
How it was run: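 IC50 values derive from resazurin fluorescence (ex 536 nm, em 588 nm), expressed relative to the negative control, after 2-4 hours of plate development. Axenic amastigotes of strain MHOM/ET/67/L82 were used; each test run in triplicate.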

Row | Compound | IC50 at 70 h [1] [nM] | IC50 [2] [nM] | IC50 [3] [nM] | IC50 (Plasmodium falciparum) [nM] | IC50 [4] [nM] | IC50 [5] [nM]
1 | CCCCCCCC[C@H](NC(=O)[C@@H]1CCCN1C(=O)CCCCC)C(=O)N[C@@H](CC(C)C)C(=O)NC(C)(C)C(=O)N[C@@H](CC(C)C)C(=O)N[C@@H](CC(C)C)C(=O)NC(C)(C)C(=O)NC(C)(C)C(=O)NCCC(=O)NCCn1cccc1 [Compound 5887, (2S)-2-{[(2S)-1-hexanoylpyrrolidin-2-yl]formamido}-N-[(1S)-3-methyl-1-[(1-methyl-1-{[(1S)-3-methyl-1-{[(1S)-3-methyl-1-{[1-methyl-1-({1-methyl-1-[(2-{[2-(1H-pyrrol-1-yl)ethyl]carbamoyl}ethyl)carbamoyl]ethyl}carbamoyl)ethyl]carbamoyl}butyl]carbamoyl}butyl]carbamoyl}ethyl)carbamoyl]butyl]decanamide] (Hexanoyl-P[Gly(octyl)]L[Aib]LL[Aib][Aib][βAla]-X9) | 479 | 41.7 | 262 | 42700 | 46800 | 35500
2 | CCCCCCCC[C@H](NC(=O)[C@@H]1CCCN1C(=O)/C=C/[C@@H](C)CC)C(=O)N[C@@H](CC(C)C)C(=O)NC(C)(C)C(=O)N[C@@H](CC(C)C)C(=O)N[C@@H](CC(C)C)C(=O)NC(C)(C)C(=O)NC(C)(C)C(=O)NCCC(=O)N[C@@H](C)CN(C)C [Compound 5562, (2S)-N-[(1S)-1-[(1-{[(1S)-1-{[(1S)-1-{[1-({1-[(2-{[(2S)-1-(dimethylamino)propan-2-yl]carbamoyl}ethyl)carbamoyl]-1-methylethyl}carbamoyl)-1-methylethyl]carbamoyl}-3-methylbutyl]carbamoyl}-3-methylbutyl]carbamoyl}-1-methylethyl)carbamoyl]-3-methylbutyl]-2-{[(2S)-1-[(2E,4S)-4-methylhex-2-enoyl]pyrrolidin-2-yl]formamido}decanamide] ({Hexenoyl(2E,4S-Me)}-P[Gly(octyl)]L[Aib]LL[Aib][Aib][βAla]-{NH((S)CH(Me)CH2NMe2)}) | 459 | 22.3 | 40.6 | 0.3 | 0.5 | 1.3

Reference: patent publication EP3345917A1, “ANTIPROTOZOAL COMPOUNDS” (Bacoba AG, priority 2017, dated 2018)
